Measured values from ChEMBL document CHEMBL3045793, “The synthesis, anti-inflammatory and antimicrobial activity evaluation of novel thioanalogs of 3,4-dihydrothiopyrimidin-2(1H)-one derivatives of N-aryl urea” (2012).
≈ marks a conversion by molar mass, not a printed value. Calls of active or inactive are those of the source. The calls are words filed in the database; no cut-off is given here.

Columns and labels:
[1] = tested on: THP-1; test: Anti-inflammatory activity in Homo sapiens (human) THP1 cells assessed as inhibition of LPS-induced IL-6 production preincubated at 10 uM for 30 min before LPS treatment measured after 24 hr by ELISA; format: functional
[2] = tested on: Fusarium solani; test: Antifungal activity against Fusarium solani up to 200 ug/ml by agar well diffusion method; format: functional, organism-based
[3] = tested on: Aspergillus niger; test: Antifungal activity against Aspergillus niger by agar well diffusion method; format: functional
[4] = tested on: Candida albicans; test: Antifungal activity against Candida albicans by agar well diffusion method; format: functional
[5] = tested on: Salmonella typhimurium; test: Antibacterial activity against Salmonella enterica subsp. enterica serovar Typhimurium by agar well diffusion method; format: functional
[6] = tested on: Bacillus subtilis; test: Antibacterial activity against Bacillus subtilis by agar well diffusion method; format: functional
[7] = tested on: Escherichia coli; test: Antibacterial activity against Escherichia coli by agar well diffusion method; format: functional
[8] = tested on: Staphylococcus aureus; test: Antibacterial activity against Staphylococcus aureus by agar well diffusion method; format: functional
[9] = tested on: Aspergillus flavus; test: Antifungal activity against Aspergillus flavus up to 200 ug/ml by agar well diffusion method; format: functional, organism-based
[10] = tested on: THP-1; test: Anti-inflammatory activity in Homo sapiens (human) THP1 cells assessed as inhibition of LPS-induced TNF-alpha production preincubated at 10 uM for 30 min before LPS treatment measured after 24 hr by ELISA; format: functional
[11] = tested on: Aspergillus flavus; test: Antifungal activity against Aspergillus flavus by agar well diffusion method; format: functional
[12] = tested on: Fusarium solani; test: Antifungal activity against Fusarium solani by agar well diffusion method; format: functional
[13] = tested on: Aspergillus niger; test: Antifungal activity against Aspergillus niger up to 200 ug/ml by agar well diffusion method; format: functional, organism-based
[14] = tested on: Bacillus subtilis; test: Antibacterial activity against Bacillus subtilis up to 200 ug/ml by agar well diffusion method; format: functional, organism-based
[15] = tested on: Salmonella typhimurium; test: Antibacterial activity against Salmonella enterica subsp. enterica serovar Typhimurium up to 200 ug/ml by agar well diffusion method; format: functional, organism-based
[16] = tested on: Candida albicans; test: Antifungal activity against Candida albicans up to 200 ug/ml by agar well diffusion method; format: functional, organism-based
[17] = tested on: Escherichia coli; test: Antibacterial activity against Escherichia coli up to 200 ug/ml by agar well diffusion method; format: functional, organism-based
[18] = tested on: Staphylococcus aureus; test: Antibacterial activity against Staphylococcus aureus up to 200 ug/ml by agar well diffusion method; format: functional, organism-based

| SMILES | inhibition at 10 µM [1] [%] | Activity [2] | MIC [3] [µg/mL] | MIC [4] [µg/mL] | MIC [5] [µg/mL] | MIC [6] [µg/mL] | MIC [7] [µg/mL] | MIC [8] [µg/mL] | Activity [9] | inhibition at 10 µM [10] [%] | MIC [11] [µg/mL] | MIC [12] [µg/mL] | Activity [13] | Activity [14] | Activity [15] | Activity [16] | Activity [17] | Activity [18] |
| --- | --- | --- | --- | --- | --- | --- | --- | --- | --- | --- | --- | --- | --- | --- | --- | --- | --- | --- |
| CCOC(=O)C1=C(C)NC(=S)NC1c1ccc(NC(=S)Nc2c(F)cccc2Cl)cc1 (stereo not drawn) | 56 | inactive | 85 (≈ 177 µM) | 65 (≈ 136 µM) | 60 (≈ 125 µM) | 80 (≈ 167 µM) | 85 (≈ 177 µM) | 60 (≈ 125 µM) | inactive | 42 | – | – | – | – | – | – | – | – |
| CCOC(=O)C1=C(C)NC(=S)NC1c1ccc(NC(=S)Nc2ccc(C(F)(F)F)cc2Cl)cc1 (stereo not drawn) | 68 | – | 55 (≈ 104 µM) | 50 (≈ 94.5 µM) | 55 (≈ 104 µM) | 55 (≈ 104 µM) | 65 (≈ 123 µM) | 90 (≈ 170 µM) | – | 55 | 60 (≈ 113 µM) | 90 (≈ 170 µM) | – | – | – | – | – | – |
| Clc1ccc(COC(Cn2ccnc2)c2ccc(Cl)cc2Cl)c(Cl)c1 (stereo not drawn) [MICONAZOLE] | – | – | 20 (≈ 48.1 µM) | 25 (≈ 60.1 µM) | – | – | – | – | – | – | 20 (≈ 48.1 µM) | 15 (≈ 36 µM) | – | – | – | – | – | – |
| CCOC(=O)C1=C(C)NC(=S)NC1c1ccc(NC(=S)Nc2ccccc2Cl)cc1 (stereo not drawn) | 36 | – | 10 (≈ 21.7 µM) | 10 (≈ 21.7 µM) | 20 (≈ 43.4 µM) | 35 (≈ 75.9 µM) | 10 (≈ 21.7 µM) | 20 (≈ 43.4 µM) | – | 0 | 15 (≈ 32.5 µM) | 10 (≈ 21.7 µM) | – | – | – | – | – | – |
| CCOC(=O)C1=C(C)NC(=S)NC1c1ccc(NC(=S)Nc2c(C)cccc2Cl)cc1 (stereo not drawn) | 55 | – | 90 (≈ 189 µM) | 65 (≈ 137 µM) | 65 (≈ 137 µM) | 80 (≈ 168 µM) | 65 (≈ 137 µM) | 40 (≈ 84.2 µM) | – | 32 | 60 (≈ 126 µM) | 60 (≈ 126 µM) | – | – | – | – | – | – |
| CCCCc1ccc(NC(=S)Nc2ccc(C3NC(=S)NC(C)=C3C(=O)OCC)cc2)cc1 (stereo not drawn) | 8 | inactive | – | – | – | – | – | – | inactive | 0 | – | – | inactive | inactive | inactive | inactive | inactive | inactive |
| CCOC(=O)C1=C(C)NC(=S)NC1c1ccc(NC(=S)Nc2ccc(F)c(C)c2)cc1 (stereo not drawn) | 27 | – | – | 95 (≈ 207 µM) | – | – | – | 80 (≈ 174 µM) | inactive | 0 | – | 95 (≈ 207 µM) | inactive | inactive | inactive | – | inactive | – |
| CCOC(=O)C1=C(C)NC(=S)NC1c1ccc(NC(=S)Nc2ccc(C)c(C)c2)cc1 (stereo not drawn) | 8 | inactive | – | – | – | – | – | – | inactive | 0 | – | – | inactive | inactive | inactive | inactive | inactive | inactive |
| O=C(O)c1cn(C2CC2)c2cc(N3CCNCC3)c(F)cc2c1=O [CIPROFLOXACIN] | – | – | – | – | 25 (≈ 75.4 µM) | 25 (≈ 75.4 µM) | 15 (≈ 45.3 µM) | – | – | – | – | – | – | – | – | – | – | – |
| CCOC(=O)C1=C(C)NC(=S)NC1c1ccc(NC(=S)Nc2cccc(C(F)(F)F)c2)cc1 (stereo not drawn) | 16 | – | 25 (≈ 50.5 µM) | 15 (≈ 30.3 µM) | 15 (≈ 30.3 µM) | 35 (≈ 70.8 µM) | 20 (≈ 40.4 µM) | 20 (≈ 40.4 µM) | – | 0 | 15 (≈ 30.3 µM) | 15 (≈ 30.3 µM) | – | – | – | – | – | – |
| CCOC(=O)C1=C(C)NC(=S)NC1c1ccc(NC(=S)Nc2c(Cl)cccc2C(F)(F)F)cc1 (stereo not drawn) | 62 | inactive | 90 (≈ 170 µM) | 85 (≈ 161 µM) | 90 (≈ 170 µM) | – | 90 (≈ 170 µM) | 65 (≈ 123 µM) | – | 46 | 90 (≈ 170 µM) | – | – | inactive | – | – | – | – |
| CCOC(=O)C1=C(C)NC(=S)NC1c1ccc(NC(=S)Nc2ccc(OC)cc2)cc1 (stereo not drawn) | 48 | – | – | – | 25 (≈ 54.8 µM) | 40 (≈ 87.6 µM) | 10 (≈ 21.9 µM) | 10 (≈ 21.9 µM) | – | 0 | – | – | – | – | – | – | – | – |
| CCOC(=O)C1=C(C)NC(=S)NC1c1ccc(NC(=S)Nc2ccccc2OC(F)(F)F)cc1 (stereo not drawn) | 54 | – | 30 (≈ 58.8 µM) | 10 (≈ 19.6 µM) | 10 (≈ 19.6 µM) | 20 (≈ 39.2 µM) | 35 (≈ 68.6 µM) | 45 (≈ 88.1 µM) | – | 27 | 15 (≈ 29.4 µM) | 10 (≈ 19.6 µM) | – | – | – | – | – | – |
